Where “and” joins values, the source holds several entries; their conditions need not be identical. Equal entries are not always repeated. Calls of active or inactive are those of the source. The calls are words filed in the database; no cut-off is given here.
Legend:
Pseudomonas aeruginosa [1] = assay: Antibacterial activity against Pseudomonas aeruginosa ATCC 27853 at 256 ug by disk diffusion method; assay type: functional, organism-based
Enterococcus faecalis [2] = assay: Antibacterial activity against Enterococcus faecalis ATCC 29212 at 128 ug by disk diffusion method; assay type: functional, organism-based
Pseudomonas aeruginosa [3] = assay: Antibacterial activity against Pseudomonas aeruginosa ATCC 27853 at 32 ug by disk diffusion method; assay type: functional, organism-based
Escherichia coli [4] = assay: Antibacterial activity against Escherichia coli ATCC 25922 at 256 ug by disk diffusion method; assay type: functional
Enterococcus faecalis [5] = assay: Antibacterial activity against Enterococcus faecalis ATCC 29212; assay type: functional
Staphylococcus aureus [6] = assay: Antibacterial activity against Staphylococcus aureus ATCC 25923 at 128 ug by disk diffusion method; assay type: functional, organism-based
Staphylococcus aureus [7] = assay: Antibacterial activity against Staphylococcus aureus ATCC 25923 at 65 ug by disk diffusion method; assay type: functional, organism-based
MRC5 [8] = assay: Ratio of IC50 for viability of MRC5 cells after 48 to MIC for Pseudomonas aeruginosa ATCC 27853; assay type: functional
Escherichia coli [9] = assay: Antibacterial activity against Escherichia coli ATCC 25922; assay type: functional
MRC5 [10] = assay: Viability of human MRC5 cells after 48 hrs; assay type: functional, cell-based; details: MRC5, 48 h
Pseudomonas aeruginosa [11] = assay: Antibacterial activity against Pseudomonas aeruginosa ATCC 27853 at 65 ug by disk diffusion method; assay type: functional, organism-based
Staphylococcus aureus [12] = assay: Antibacterial activity against Staphylococcus aureus ATCC 25923 at 32 ug by disk diffusion method; assay type: functional, organism-based
Escherichia coli [13] = assay: Antibacterial activity against Escherichia coli ATCC 25922 at 128 ug by disk diffusion method; assay type: functional, organism-based
MRC5 [14] = assay: Ratio of IC50 for viability of MRC5 cells after 48 to MIC for Enterococcus faecalis ATCC 29212; assay type: functional
Enterococcus faecalis [15] = assay: Antibacterial activity against Enterococcus faecalis ATCC 29212 at 256 ug by disk diffusion method; assay type: functional, organism-based
Enterococcus faecalis [16] = assay: Antibacterial activity against Enterococcus faecalis ATCC 29212 at 32 ug by disk diffusion method; assay type: functional, organism-based
Enterococcus faecalis [17] = assay: Antibacterial activity against Enterococcus faecalis ATCC 29212 at 65 ug by disk diffusion method; assay type: functional, organism-based
MRC5 [18] = assay: Ratio of IC50 for viability of MRC5 cells after 48 hrs to MIC for Escherichia coli ATCC 25922; assay type: functional
Pseudomonas aeruginosa [19] = assay: Antibacterial activity against Pseudomonas aeruginosa ATCC 27853 at 128 ug by disk diffusion method; assay type: functional, organism-based
MRC5 [20] = assay: Ratio of IC50 for viability of MRC5 cells after 48 to MIC for Staphylococcus aureus ATCC 25923; assay type: functional
Staphylococcus aureus [21] = assay: Antibacterial activity against Staphylococcus aureus ATCC 25923 at 256 ug by disk diffusion method; assay type: functional
Pseudomonas aeruginosa [22] = assay: Antibacterial activity against Pseudomonas aeruginosa ATCC 27853; assay type: functional
Escherichia coli [23] = assay: Antibacterial activity against Escherichia coli ATCC 25922 at 32 ug by disk diffusion method; assay type: functional, organism-based
Escherichia coli [24] = assay: Antibacterial activity against Escherichia coli ATCC 25922 at 65 ug by disk diffusion method; assay type: functional, organism-based
Staphylococcus aureus [25] = assay: Antibacterial activity against Staphylococcus aureus ATCC 25923; assay type: functional
Escherichia coli [26] = assay: Antibacterial activity against Escherichia coli ATCC 25922 at 34 ug by disk diffusion method; assay type: functional, organism-based
Staphylococcus aureus [27] = assay: Antibacterial activity against Staphylococcus aureus ATCC 25923 at 34 ug by disk diffusion method; assay type: functional
Pseudomonas aeruginosa [28] = assay: Antibacterial activity against Pseudomonas aeruginosa ATCC 27853 at 270 ug by disk diffusion method; assay type: functional
Staphylococcus aureus [29] = assay: Antibacterial activity against Staphylococcus aureus ATCC 25923 at 135 ug by disk diffusion method; assay type: functional
Enterococcus faecalis [30] = assay: Antibacterial activity against Enterococcus faecalis ATCC 29212 at 67 ug by disk diffusion method; assay type: functional
Staphylococcus aureus [31] = assay: Antibacterial activity against Staphylococcus aureus ATCC 25923 at 67 ug by disk diffusion method; assay type: functional
Enterococcus faecalis [32] = assay: Antibacterial activity against Enterococcus faecalis ATCC 29212 at 135 ug by disk diffusion method; assay type: functional
Enterococcus faecalis [33] = assay: Antibacterial activity against Enterococcus faecalis ATCC 29212 at 34 ug by disk diffusion method; assay type: functional, organism-based
Pseudomonas aeruginosa [34] = assay: Antibacterial activity against Pseudomonas aeruginosa ATCC 27853 at 34 ug by disk diffusion method; assay type: functional, organism-based
Pseudomonas aeruginosa [35] = assay: Antibacterial activity against Pseudomonas aeruginosa ATCC 27853 at 67 ug by disk diffusion method; assay type: functional, organism-based
Escherichia coli [36] = assay: Antibacterial activity against Escherichia coli ATCC 25922 at 67 ug by disk diffusion method; assay type: functional
Escherichia coli [37] = assay: Antibacterial activity against Escherichia coli ATCC 25922 against at 135 ug by disk diffusion method; assay type: functional
Pseudomonas aeruginosa [38] = assay: Antibacterial activity against Pseudomonas aeruginosa ATCC 27853 at 135 ug by disk diffusion method; assay type: functional, organism-based
Enterococcus faecalis [39] = assay: Antibacterial activity against Enterococcus faecalis ATCC 29212 at 270 ug by disk diffusion method; assay type: functional
Staphylococcus aureus [40] = assay: Antibacterial activity against Staphylococcus aureus ATCC 25923 at 270 ug by disk diffusion method; assay type: functional
Escherichia coli [41] = assay: Antibacterial activity against Escherichia coli ATCC 25922 at 270 ug by disk diffusion method; assay type: functional

Structure (SMILES): N=C(N)NCCc1ccc(O)cc1.O=C(O)C(F)(F)F
- inhibition zone (IZ) (Pseudomonas aeruginosa [1]): inactive
- inhibition zone (IZ) (Enterococcus faecalis [2]): inactive
- inhibition zone (IZ) (Pseudomonas aeruginosa [3]): inactive
- inhibition zone (IZ) (Escherichia coli [4]): 7.6 mm
- MIC (Enterococcus faecalis [5]): ≥ 512 µg/mL and 1750 µM
- inhibition zone (IZ) (Staphylococcus aureus [6]): inactive
- inhibition zone (IZ) (Staphylococcus aureus [7]): inactive
- Selectivity index (MRC5 [8]): 0.48
- MIC (Escherichia coli [9]): 512 µg/mL and 1750 µM
- IC50 (MRC5 [10]): 850 µM
- inhibition zone (IZ) (Pseudomonas aeruginosa [11]): inactive
- inhibition zone (IZ) (Staphylococcus aureus [12]): inactive
- inhibition zone (IZ) (Escherichia coli [13]): inactive
- Selectivity index (MRC5 [14]): <=0.48
- inhibition zone (IZ) (Enterococcus faecalis [15]): inactive
- inhibition zone (IZ) (Enterococcus faecalis [16]): inactive
- inhibition zone (IZ) (Enterococcus faecalis [17]): inactive
- Selectivity index (MRC5 [18]): 0.48
- inhibition zone (IZ) (Pseudomonas aeruginosa [19]): inactive
- Selectivity index (MRC5 [20]): 0.48
- inhibition zone (IZ) (Staphylococcus aureus [21]): 7.8 mm
- MIC (Pseudomonas aeruginosa [22]): 512 µg/mL and 1750 µM
- inhibition zone (IZ) (Escherichia coli [23]): inactive
- inhibition zone (IZ) (Escherichia coli [24]): inactive
- MIC (Staphylococcus aureus [25]): 512 µg/mL and 1750 µM

Structure (SMILES): N=C(N)NCCc1cc2c(O)c(c1)Cc1cc(CCNC(=N)N)cc(c1O)Cc1cc(CCNC(=N)N)cc(c1O)Cc1cc(CCNC(=N)N)cc(c1O)C2.O=C(O)C(F)(F)F.O=C(O)C(F)(F)F.O=C(O)C(F)(F)F.O=C(O)C(F)(F)F
- inhibition zone (IZ) (Escherichia coli [26]): inactive
- inhibition zone (IZ) (Staphylococcus aureus [27]): 6.3 mm
- MIC (Enterococcus faecalis [5]): 64 µg/mL and 51 µM
- inhibition zone (IZ) (Pseudomonas aeruginosa [28]): 7.8 mm
- inhibition zone (IZ) (Staphylococcus aureus [29]): 9 mm
- inhibition zone (IZ) (Enterococcus faecalis [30]): 6.6 mm
- Selectivity index (MRC5 [8]): 43
- inhibition zone (IZ) (Staphylococcus aureus [31]): 8 mm
- inhibition zone (IZ) (Enterococcus faecalis [32]): 8.3 mm
- MIC (Escherichia coli [9]): 16 µg/mL and 13 µM
- inhibition zone (IZ) (Enterococcus faecalis [33]): inactive
- IC50 (MRC5 [10]): 560 µM
- inhibition zone (IZ) (Pseudomonas aeruginosa [34]): inactive
- Selectivity index (MRC5 [14]): 11
- inhibition zone (IZ) (Pseudomonas aeruginosa [35]): inactive
- Selectivity index (MRC5 [18]): 43
- Selectivity index (MRC5 [20]): 43
- inhibition zone (IZ) (Escherichia coli [36]): 7.3 mm
- inhibition zone (IZ) (Escherichia coli [37]): 9.3 mm
- inhibition zone (IZ) (Pseudomonas aeruginosa [38]): inactive
- MIC (Pseudomonas aeruginosa [22]): 16 µg/mL and 13 µM
- inhibition zone (IZ) (Enterococcus faecalis [39]): 10 mm
- MIC (Staphylococcus aureus [25]): 16 µg/mL and 13 µM
- inhibition zone (IZ) (Staphylococcus aureus [40]): 11 mm
- inhibition zone (IZ) (Escherichia coli [41]): 11.2 mm
